The values below come from US20240226178A1, “ELECTROPHYSIOLOGICAL MODIFICATION TO SUPPRESS ARRHYTHMIAS” (UNIVERSITY OF WASHINGTON, priority 2021, published 2024).

The subject of experiment [1] is RUES2 hESC-CMs wild-type. Briefly: MEA dose-response of compounds on spontaneous electrical activity of hESC-CMs. In kind it is cell-based, human. The note with it: for beating frequency / beat rate (effect in words) / spike amplitude (effect in words): RUES2 hESC-CMs wild-type on MEA, increasing doses vs DMSO control. The text has this: FIGS. 6A-6F. […] Data shown as mean±SEM of 2 independent experiments each with 6 technical replicates (wells), and normalized on experimental baseline and expressed as % vs. DMSO control. Lines represents nonlinear regression of normalized response Y=100/(1+10^((LogIC50-X)*HillSlope))).
FIGS. 13A-13C. […] (FIGS. 13A, 13B, 13C) Dose-response curve of Mibefradil (ICaT, FIG. 13A), Zacopride (IK1 agonist, FIG. 13B) and Verapamil (L-type calcium channel inhibitor, FIG. 13C) on MEA system. Data shown as mean±SEM of 2 independent experiments normalized on baseline and expressed as % vs DMSO control (N=2, n=6). Lines represent nonlinear regression of normalized response Y=100/(1+10^((LogIC50-X)*HillSlope))).
The role of ion channels in automaticity has been so far largely studied in the context of the adult mouse sinoatrial node. Whether the same mechanisms also apply to hPSC-CMs and/or fetal human cardiomyocytes remains controversial. First, a variety of pharmacological compounds were tested on hPSC-CMs derived from the RUES2 human embryonic stem cells (hESCs), which were differentiated by sequential small molecule-based activation and inhibition of the WNT pathway. The inventors performed electrophysiological analyses using a multielectrode array (MEA) to record the effects of the different compounds on hPSC-CMs spontaneous electrical activity. […] Zacopride, reported to have agonistic effect on the Kir2.1 channel (encoded by KCNJ2) that mediates IKI currents, was also tested.
CytoView™ MEA 48 were coated with 0.17 mg/mL of Matrigel for 1 hour at 37° C. […] For spontaneous beat recording, spontaneous electrical activity was recorded for 5 min using Maestro™ Pro system at 37° C. with 5% CO2. Considering the irregular beat rate of the cell lines bearing KCNJ2 KI, the data are shown as total number of beats recorded per experiment, divided by the total time of recording (average beats/min). For pharmacological studies, the different compounds were diluted in DMSO and incubated directly on MEA plates for 5 min at 37° C. Effects on spontaneous beat rate was determined by recording for 15 min after drug incubation. Non-linear regression curve calculated as Y=100/(1+10^((LogIC50-X)*HillSlope))). […] Quantification of beat rate, spike amplitude and beat period irregularity was performed using Axis Navigator (beat detector threshold: 30-100 μV; Minimum beat period: 200-500 ms; Maximum beat period: 30s).

The test system of experiment [2] is EA in pigs. To be noted: after hPSC-CM transplantation, reference [17]; cited from earlier work.

Each structure is given as a SMILES string.

In the case of `COc1ccc(CCN(C)CCCC(C#N)(c2ccc(OC)c(OC)c2)C(C)C)cc1OC` (stereo not shown) [Verapamil], in experiment [1], the “beating frequency / beat rate (effect in words)” value (from here on “beating frequency / beat rate”) is listed as “progressively decrease” and the “spike amplitude (effect in words)” value is listed as “progressively decrease”.
`CC(C)(C)CCN1C[C@@H]2C(CNC(=O)c3cc(Cl)cc(Cl)c3)[C@@H]2C1` (stereo partly shown) [ML-218]: in experiment [1] (MEA dose-response, nonlinear regression of normalized response, log value, concentration unit not given), the LogIC50 is listed as −4.8±0.1424. For the same compound, the “doses at which spike amplitude decreased” value in experiment [1] (MEA, hESC-CMs) is on record as “above 1 μM”. The “beating frequency / beat rate” value in experiment [1] was “no effect on beating frequency until spike amplitudes were undetectable”.
Consider `CCOc1ccc(Oc2ccc(OCc3cc(F)ccc3F)cc2)c(N)c1` [SEA0400], for which, in experiment [1], the “beating frequency / beat rate” value is “dose-dependent reduction” and the “spike amplitude (effect in words)” value is “dose-dependent reduction”.
A word on the IC50: it is the point on the concentration scale where inhibition reaches its midpoint. Compound `COCC(=O)O[C@]1(CCN(C)CCCc2nc3ccccc3[nH]2)CCc2cc(F)ccc2[C@@H]1C(C)C` [Mibefradil] showed an IC50 in experiment [1] (Homo sapiens, MEA dose-response, nonlinear regression of normalized response, log value, concentration unit inferred) of 0.02 µM.
Regarding `N=C(N)SCCc1ccc(OCc2ccc([N+](=O)[O-])cc2)cc1` [KB-R3702], in experiment [1], the “beating frequency / beat rate” value is reported as “dose-dependent reduction” and the “spike amplitude (effect in words)” value was “dose-dependent reduction”.
`COc1cc2c(cc1OC)CC(=O)N(CCCN(C)C[C@H]1Cc3cc(OC)c(OC)cc31)CC2` [Ivabradine]: in experiment [1], the “beating frequency / beat rate” value is recorded as “potently reduced” and the “spike amplitude (effect in words)” value is recorded as “did not alter”. In experiment [1] (very high doses of ivabradine (100 μM)), the “spontaneous AP firing” value is on record as “did not prevent”. The “effect on EA in pigs” value in experiment [2] is “reduces heart rate but does not prevent EA”.
Turning to `COc1cc(N)c(Cl)cc1C(=O)NC1CN2CCC1CC2` (stereo not shown) [Zacopride], in experiment [1], the “beating frequency / beat rate” value is on record as “did not show measurable effects” and the “spike amplitude (effect in words)” value was “did not show measurable effects”.
